According to patent US20130137573A1, “HERBICIDAL COMPOSITIONS COMPRISING, AND METHODS OF USE OF, HERBICIDALLY ACTIVE PYRANDIONES” (priority 2009, published 2013):

Legend:
Type in all cases: in vivo
Koshihikari rice = test: Biological Example 3 (Test 120): damage to flooded transplanted rice; settings: for Koshihikari rice % herbicidal damage, Mean of 2 repetitions / Koshihikari rice % herbicidal damage, Repetition A / Koshihikari rice % herbicidal damage, Repetition B / rice phytotoxicity (span of the 2 repetitions): EC050, 14DAA; for rice phytotoxicity (span of the 2 repetitions): Koshihikari
Procedure: (§1) Rice seeds, variety Koshihikari, were sown in seed trays, after 7 days they were transplanted as 3 groups of 2 plants, into pots containing a standard clay soil saturated with water replicating swampy conditions. These were grown on for 9 days in a glasshouse bay (30/20° C. day/night; 18/6 hours light/dark; 75% humidity). Approx 10-20 seeds of Echinochloa crus-galli were sown into pots 13 days prior to application, in the same conditions as the rice. All pots were flooded to 2-3 cm water depth the day prior to application. Growth stages at time of application were: Rice: 2-3 leaves; ECHCG: 2-3 leaves.
The test solutions were prepared by mixing the appropriate aliquots of the test substance (here, compound A-13 as the EC050 Formulation Example 1 disclosed herein) in de-ionised water to give the desired treatment concentration.
(§2) Application was made by pipetting the required amount of the test solution gently into the flood water of the appropriate pot.
(§3) The test plants were grown on in the same glasshouse conditions, and watered twice daily keeping the flood water at a depth of 2-3 cm.
(§4) A visual assessment of the % herbicidal damage was made 14 days after application (0=no damage to plants, 100=total kill).

[1] = tested on: Echinochloa crus-galli (ECHCG); test: Biological Example 4 (Test 110): transplanted (TPR) method, ECHCG damage; settings: EC050 into flood water, ECHCG 4 leaves, 14 days after application
Procedure: as §1, with “standard sandy loam” for “standard clay”, “bay 30/20°” for “bay (30/20°”, “2-3 leaves,” for “2-3 leaves;”, “ECHCG: 4” for “ECHCG: 2-3”, “leaves. The test solutions were prepared by mixing the appropriate aliquots of the test substance (here, compound A-13 as EC050 Formulation Example 1) in de-ionised water to give the desired treatment concentration.” for “leaves.”
as §2, §3
(§5) No. of repetitions: 1 test only.
as §4

[2] = tested on: Echinochloa crus-galli (ECHCG); test: Biological Example 4 (Test 110): wet seeded rice (WSR) method, ECHCG damage; settings: for WSR ECHCG 0.5lf % herbicidal damage / WSR ECHCG 3lf % herbicidal damage: EC050 + 0.2% Adsee, foliar spray, 14 days after application; for WSR ECHCG 0.5lf % herbicidal damage: 0.5 leaf stage; for WSR ECHCG 3lf % herbicidal damage: 3 leaf stage
Text: Rice seeds varieties IR-64 and Arborio, Echinochloa crus-galli (ECHCG), and Leptochloa chinensis (LEFCH) were sown in seed trays containing a standard sandy loam soil saturated with water replicating swampy conditions. They were sown at intervals to achieve plants at the following growth stages at time of application: IR-64 and Arborio rice: from 3 leaves on the main stem to tillering; ECHCG: at two different leaf stages: 0-0.5 leaf and 2-3 leaf; LEFCH: 3 leaf. Glasshouse bay conditions were 30/20° C. day/night; 18/6 hours light/dark; 75% humidity.
The test solutions were prepared by mixing the appropriate aliquots of the test substance (here, compound A-13 as EC050 Formulation Example 1) and adjuvant (0.2% Adsee as adjuvant) in de-ionised water to give the desired treatment concentration.
Application was as a foliar spray, made using a tracksprayer. 3 days after application the trays were flooded to 2-3 cm water depth, and maintained at this level for the duration of the test.
as §5, §4

[3] = tested on: Echinochloa crus-galli (ECHCG); test: Biological Example 1 (Test 125): visual herbicidal damage to flooded ECHCG; settings: 14 DAA
Procedure: Rice seeds, variety IR-64 (an indica type of rice), were sown in seed trays. After 7 days the resulting plants were transplanted as 3 groups of 2 plants, into pots containing a standard sandy loam soil saturated with water replicating swampy conditions. These were grown on for a further 9 days in a glasshouse bay (30/20° C. day/night; 18/6 hours light/dark; 75% humidity). Leptochloa chinensis (LEFCH) and Echinochloa crus-galli (ECHCG) were sown as 2 separate groups of approx 10-20 seeds into pots 13 days prior to application of the test substances, in the same glasshouse conditions as the rice. Therefore, each pot of weeds contained a group of LEFCH and a separate group of ECHCG. All pots of rice and all pots of weeds were flooded to 2-3 cm water depth the day prior to application of the test substances. Growth stages at time of application were as follows: Rice: from 2 leaves on the main stem up to tillering; ECHCG: from 2 leaves on the main stem up to tillering; LEFCH: 2-3 leaves.
Test solutions were prepared by mixing the appropriate aliquots of the test substances in deionised water to give the desired treatment concentration. Most of the test substances were used as formulated products. Specifically, compound A-13 was applied as the EC050 formulation disclosed in Formulation Example 1 herein (EC=emulsifiable concentrate). Reference compound A-4 was applied as the EC050 formulation disclosed in Reference Formulation Example 2 herein. Pyroxasulfone (a comparator co-herbicide) was applied as the SC050 formulation disclosed in Reference Formulation Example 6 herein (SC=Suspension concentrate). Imazosulfuron (a comparator co-herbicide) was applied as a GR0.25 formulation (GR=granule).
The test substances which were pure active ingredient (e.g. propyrisulfuron & fenoxasulfone & compound A-16) (labelled as ‘Technical’ in the following results table), were prepared by dissolving in 10.56% Emulsogen EL™ (castor oil ethoxylate, CAS Registry number 61791-12-6), 42.22% N-methylpyrrolidone and 42.22% dipropylene glycol mono-ethyl ether to give a stock solution containing 5% of the test substance and 95% of (Emulsogen EL™, N-methylpyrrolidone and dipropylene glycol mono-ethyl ether).
Application of the test substances was made by pipetting the required amount of the test solution or the test formulation gently into the flood water of the appropriate pot.
The test plants were then grown on in the same glasshouse conditions, and watered twice daily keeping the flood water at a depth of 2-3 cm.
A visual assessment of the % herbicidal damage was made 7 & 14 days after application […], and the results are presented herein as % visual herbicidal damage where 0=no damage to plants and 100=total kill.

CC1(C)OC(C)(C)C(O)=C(c2cc(-c3ccc(Cl)cc3F)ccc2C2CC2)C1=O [compound A-13, 4-(4′-Chloro-4-cyclopropyl-2′-fluorobiphenyl-3-yl)-2,2,6,6-tetramethylpyran-3,5-dione]
Koshihikari rice % herbicidal damage, Mean of 2 repetitions (Koshihikari rice; 125 g/ha): 13%
Koshihikari rice % herbicidal damage, Repetition A (Koshihikari rice; 125 g/ha): 10%
Koshihikari rice % herbicidal damage, Repetition B (Koshihikari rice; 125 g/ha): 15%
rice phytotoxicity (span of the 2 repetitions) (Koshihikari rice; 125 g/ha): 10-15%
Koshihikari rice % herbicidal damage, Mean of 2 repetitions (Koshihikari rice; 250 g/ha): 20%
Koshihikari rice % herbicidal damage, Repetition A (Koshihikari rice; 250 g/ha): 20%
Koshihikari rice % herbicidal damage, Repetition B (Koshihikari rice; 250 g/ha): 20%
Koshihikari rice % herbicidal damage, Mean of 2 repetitions (Koshihikari rice; 500 g/ha): 25%
Koshihikari rice % herbicidal damage, Repetition A (Koshihikari rice; 500 g/ha): 20%
Koshihikari rice % herbicidal damage, Repetition B (Koshihikari rice; 500 g/ha): 30%
rice phytotoxicity (span of the 2 repetitions) (Koshihikari rice; 500 g/ha): 20-30%
selectivity margin for use on rice (Koshihikari vs ECHCG) (Koshihikari rice; Biological Example 3, 125 g/ha vs 500 g/ha): reasonable selectivity margin
Transplanted ECHCG % herbicidal damage ([1]; 30 g/ha): 0%
Transplanted ECHCG % herbicidal damage ([1]; 60 g/ha): 20%
Transplanted ECHCG % herbicidal damage ([1]; 125 g/ha): 75%
Transplanted ECHCG % herbicidal damage ([1]; 500 g/ha): 99%
WSR ECHCG 0.5lf % herbicidal damage ([2]; 8 g/ha): 45%
WSR ECHCG 3lf % herbicidal damage ([2]; 8 g/ha): 65%
WSR ECHCG control ([2]; 60 and 125 g/ha, 2 growth stages, 0.5 leaf and 3 leaf, wet seeded rice method): 90-100%
WSR ECHCG 0.5lf % herbicidal damage ([2]; 60 g/ha): 90%
WSR ECHCG 3lf % herbicidal damage ([2]; 60 g/ha): 100%
WSR ECHCG 0.5lf % herbicidal damage ([2]; 125 g/ha): 100%
WSR ECHCG 3lf % herbicidal damage ([2]; 125 g/ha): 100%
WSR ECHCG 0.5lf % herbicidal damage ([2]; 500 g/ha): 100%
WSR ECHCG 3lf % herbicidal damage ([2]; 500 g/ha): 100%
ECHCG control ([3]; 60 g/ha applied alone (EC050)): 35%
ECHCG control ([3]; 90 g/ha applied alone (EC050)): 55%
ECHCG control ([3]; 120 g/ha applied alone (EC050)): 55%
